The nature of the test: Inhibition of human GST-tagged androgen receptor-ligand binding domain/cofactor interaction assessed as fluorescence polarization by competition assay.

Square brackets hold non-standard residues; d marks the D form. Peptide text beside a SMILES is read from it. Phe(4-Cl) = N[C@@H](Cc1ccc(Cl)cc1)C(=O)O; 2Nal = N[C@@H](Cc1ccc2ccccc2c1)C(=O)O; Cha = N[C@@H](CC1CCCCC1)C(=O)O

For the compound `CC(C)C[C@H](NC(=O)[C@H](CCCNC(=N)N)NC(=O)[C@H](CO)NC(=O)[C@@H](N)CO)C(=O)N[C@@H](CCC(=O)O)C(=O)N[C@@H](CO)C(=O)N[C@@H](Cc1c[nH]c2ccccc12)C(=O)N[C@@H](Cc1ccc(Cl)cc1)C(=O)N[C@@H](C)C(=O)NCC(=O)N[C@@H](CCC(=O)O)C(=O)N[C@@H](CCCCN)C(=O)N[C@@H](CCC(=O)O)C(=O)N[C@@H](CO)C(=O)N[C@@H](CCCNC(=N)N)C(=O)NCC(=O)O` (H-SSRLESW[Phe(4-Cl)]AGEKESRG-OH), the Ki (in general, the equilibrium dissociation constant of an inhibitor or competing ligand from its target) was 166 µM. Regarding `C[C@H](NC(=O)[C@H](CC1CCCCC1)NC(=O)[C@H](Cc1ccccc1)NC(=O)[C@H](CO)NC(=O)[C@H](CCC(=O)O)NC(=O)[C@H](Cc1c[nH]c2ccccc12)NC(=O)[C@H](CCCNC(=N)N)NC(=O)[C@H](CO)NC(=O)[C@@H](N)CO)C(=O)NCC(=O)N[C@@H](CCC(=O)O)C(=O)N[C@@H](CCCCN)C(=O)N[C@@H](CCC(=O)O)C(=O)N[C@@H](CO)C(=O)N[C@@H](CCCNC(=N)N)C(=O)NCC(=O)O` (H-SSRWESF[Cha]AGEKESRG-OH), the Ki came out at 2.44 µM. Take `CC(C)C[C@H](NC(=O)[C@H](CO)NC(=O)[C@H](CCC(=O)O)NC(=O)[C@H](Cc1ccc2ccccc2c1)NC(=O)[C@H](CCCNC(=N)N)NC(=O)[C@H](CO)NC(=O)[C@@H](N)CO)C(=O)N[C@@H](Cc1c[nH]c2ccccc12)C(=O)N[C@@H](C)C(=O)NCC(=O)N[C@@H](CCC(=O)O)C(=O)N[C@@H](CCCCN)C(=O)N[C@@H](CCC(=O)O)C(=O)N[C@@H](CO)C(=O)N[C@@H](CCCNC(=N)N)C(=O)NCC(=O)O` (H-SSR[2Nal]ESLWAGEKESRG-OH): the Ki was determined as 3.68 µM. With `C[C@H](NC(=O)[C@H](Cc1c[nH]c2ccccc12)NC(=O)[C@H](CC1CCCCC1)NC(=O)[C@H](CO)NC(=O)[C@H](CCC(=O)O)NC(=O)[C@H](Cc1ccc2ccccc2c1)NC(=O)[C@H](CCCNC(=N)N)NC(=O)[C@H](CO)NC(=O)[C@@H](N)CO)C(=O)NCC(=O)N[C@@H](CCC(=O)O)C(=O)N[C@@H](CCCCN)C(=O)N[C@@H](CCC(=O)O)C(=O)N[C@@H](CO)C(=O)N[C@@H](CCCNC(=N)N)C(=O)NCC(=O)O` (H-SSR[2Nal]ES[Cha]WAGEKESRG-OH), the Ki was determined as 0.47 µM. With H-SSRFESLFAGEKESRG-OH, the inhibitory constant (Ki) worked out at 0.76 µM. For the compound H-SSRFESWFAGEKESRG-OH, the Ki came out at 0.94 µM. Turning to H-SSRWESWFAGEKESRG-OH, the Ki is 82.9 µM.
